Measurements from the Deep4Chem optical property database.
Each block holds one compound with its values, some of them ahead of it.

Assay: solvent given as SMILES

Compound: CN(C)c1ccc(/C=C/c2cc[n+](CCC[n+]3ccc(/C=C/c4ccc(N(C)C)cc4)cc3)cc2)cc1
- absorption maximum (in CC1COC(=O)O1): 485 nm
- absorption maximum (in CC#N): 488 nm
- absorption maximum (in CC(C)=O): 484 nm
- absorption maximum (in CC(C)O): 499 nm
- absorption maximum (in CCO): 500 nm
- absorption maximum (in CN(C)C=O): 485 nm
- absorption maximum (in CO): 494 nm
- absorption maximum (in CS(C)=O): 485 nm
- absorption maximum (in ClC(Cl)Cl): 501 nm
- absorption maximum (in O): 466 nm
- absorption maximum (in c1ccncc1): 498 nm

Compound: CCCCCCCCCCCCCCOc1ccc(C#Cc2cc3nc4c(OCCCCCCCCCCCC)cc5c6cc(OCCCCCCCCCCCC)c(OCCCCCCCCCCCC)cc6c6cc(OCCCCCCCCCCCC)c(OCCCCCCCCCCCC)cc6c5c4nc3cc2C#Cc2ccc(OCCCCCCCCCCCCCC)cc2)cc1
- absorption maximum (in ClC(Cl)Cl): 486 nm

Compound: c1ccc2cc3c4c(ccc3cc2c1)-c1cccc2cccc-4c12
- absorption maximum (in CCCCCCC): 407 nm

Compound: N#C/C(=C\c1cc(/C=C(\C#N)c2ccc(C(F)(F)F)cc2)c(-c2ccc(N(c3ccccc3)c3ccccc3)cc2)cc1-c1ccc(N(c2ccccc2)c2ccccc2)cc1)c1ccc(C(F)(F)F)cc1
- absorption maximum (in C1CCCCC1): 405 nm
- absorption maximum (in C1CCOC1): 402 nm
- absorption maximum (in CCCCCC): 402 nm
- absorption maximum (in CCOC(C)=O): 397 nm
- absorption maximum (in Cc1ccccc1): 408 nm
- absorption maximum (in ClC(Cl)Cl): 407 nm
- absorption maximum (in ClCCl): 405 nm

Compound: CN(c1ccccc1)c1ccc(N(c2ccccc2)c2ccc3ccc4c(N(c5ccccc5)c5ccc(N(C)c6ccccc6)cc5)ccc5ccc2c3c54)cc1
- absorption maximum (in ClCCl): 435 nm

Compound: CCCCN1C(=O)c2cc(Oc3ccc(C(C)(C)C)cc3)c3c4c(Oc5ccc(C(C)(C)C)cc5)cc5c(=O)n6c(c7cc(Oc8ccc(C(C)(C)C)cc8)c(c8c(Oc9ccc(C(C)(C)C)cc9)cc(c2c38)C1=O)c4c57)=Cc1ccc2ccccc2[n+]1[B-]6(F)F
- absorption maximum (in ClCCl): 648 nm

Compound: F[B-]1(F)OC(c2ccccc2)=Nc2sc(-c3ccccc3)n[n+]21
- absorption maximum (in C1CCOC1): 332 nm
- absorption maximum (in CC#N): 330 nm
- absorption maximum (in CCO): 328 nm
- absorption maximum (in CCOC(C)=O): 331 nm
- absorption maximum (in Cc1ccccc1): 337 nm
- absorption maximum (in ClC(Cl)Cl): 335 nm
- absorption maximum (in ClCCl): 333 nm

Compound: CC1(C)c2ccccc2N(c2ccc3c(ccc4nc5ccc6cc(N7c8ccccc8C(C)(C)c8ccccc87)ccc6c5nc43)c2)c2ccccc21
- absorption maximum (in C1CCCCC1): 413 nm
- absorption maximum (in C1CCOC1): 416 nm
- absorption maximum (in CN(C)C=O): 418 nm
- absorption maximum (in Cc1ccccc1): 416 nm
- absorption maximum (in ClCCl): 416 nm

Compound: C(#Cc1ccc(C#Cc2ccc(C#Cc3ccccc3)cc2)cc1)c1ccccc1
- absorption maximum (in ClC(Cl)Cl): 345 nm

Compound: CCN(CC)c1ccc(Nc2cc3oc(-c4ccc(C#N)cc4)nc3c3ccccc23)cc1
- absorption maximum (in C1COCCO1): 420 nm
- absorption maximum (in CC(C)=O): 420 nm
- absorption maximum (in ClCCl): 420 nm
- absorption maximum (in c1ccccc1): 420 nm

Compound: C=C(C)C(CN1C(=O)c2cccc3cccc(c23)C1=O)OO (configuration not stated)
- absorption maximum (in CCO): 332 nm

Compound: CN(C)/C=N\c1ccc2c3c(cccc13)C(=O)c1ccccc1-2
- absorption maximum (in C1CCOC1): 459 nm
- absorption maximum (in CCCCCC): 437 nm
- absorption maximum (in CCO): 471 nm
- absorption maximum (in CCOC(C)=O): 459 nm
- absorption maximum (in CN(C)C=O): 479 nm
- absorption maximum (in CO): 470 nm
- absorption maximum (in Cc1ccccc1): 454 nm
- absorption maximum (in ClC(Cl)(Cl)Cl): 448 nm
- absorption maximum (in ClC(Cl)Cl): 464 nm
- absorption maximum (in ClCCl): 467 nm
- absorption maximum (in c1ccccc1): 456 nm

Compound: CC1=[N+]2C(=C(c3ccc(-c4c5ccccc5c(-c5ccccc5)c5ccccc45)cc3)c3ccc(C)n3[B-]2(F)F)C=C1
- absorption maximum (in CC#N): 508 nm
- absorption maximum (in CCCCCC): 512 nm
- absorption maximum (in CCO): 511 nm
- absorption maximum (in CN(C)C=O): 512 nm
- absorption maximum (in Cc1ccccc1): 516 nm
- absorption maximum (in ClCCl): 513 nm

Compound: CC1(C)C(/C=C/C=C/c2cc3ccc(O)cc3oc2=O)=[N+](CCCS(=O)(=O)[O-])c2ccc(S(=O)(=O)O)cc21
- absorption maximum (in CCO): 508 nm
- absorption maximum (in CS(C)=O): 494 nm
- absorption maximum (in O): 592 nm

Compound: CN(C)c1cc(C#N)c(N(C)C)c(C#N)c1
- absorption maximum (in C1CCCCC1): 387.45 nm
- absorption maximum (in C1CCOC1): 390.47 nm
- absorption maximum (in C1COCCO1): 391.08 nm
- absorption maximum (in CC1COC(=O)O1): 394.48 nm
- absorption maximum (in CC#N): 390.93 nm
- absorption maximum (in CC(C)=O): 389.86 nm
- absorption maximum (in CC(C)OC(C)C): 386.7 nm
- absorption maximum (in CCC#N): 391.08 nm
- absorption maximum (in CCC(C)C): 385.21 nm
- absorption maximum (in CCCCCC): 386.7 nm
- absorption maximum (in CCCCCCCCO): 393.39 nm
- absorption maximum (in CCCCCOCCCCC): 388.5 nm
- absorption maximum (in CCCCOC(C)=O): 389.86 nm
- absorption maximum (in CCCCOCCCC): 387.6 nm
- absorption maximum (in CCCOCCC): 389.86 nm
- absorption maximum (in CCO): 391.7 nm
- absorption maximum (in CCOC(C)=O): 389.71 nm
- absorption maximum (in CCOCC): 390.62 nm
- absorption maximum (in CN(C)C=O): 393.55 nm
- absorption maximum (in CO): 392.31 nm
- absorption maximum (in CS(C)=O): 396.83 nm
- absorption maximum (in Cc1ccccc1): 395.26 nm
- absorption maximum (in ClCCCl): 394.48 nm
- absorption maximum (in ClCCl): 397.3 nm
- absorption maximum (in N#Cc1ccccc1): 399.36 nm
- absorption maximum (in O): 386.85 nm
- absorption maximum (in OCC(O)CO): 403.39 nm
- absorption maximum (in c1ccccc1): 395.73 nm

Compound: N#Cc1cccc(-c2nc(-c3ccccc3)c(-c3ccccc3)[nH]2)c1
- absorption maximum (in CO): 308 nm

Compound: Cc1ccc(-c2cc(-c3ccccc3)c3c(N)nc(N4CCCC4)c(C#N)c3n2)cc1
- absorption maximum (in CC#N): 412 nm
- absorption maximum (in CC(C)=O): 414 nm
- absorption maximum (in CC(C)O): 414 nm
- absorption maximum (in CO): 414 nm
- absorption maximum (in ClC(Cl)Cl): 420 nm
- absorption maximum (in ClCCl): 420 nm
- absorption maximum (in c1ccccc1): 424 nm

Compound: CCC12C(=C3C(=C4c5ccc(-c6ccc(C)s6)cc5S(=O)(=O)C41CC)C(F)(F)C(F)(F)C3(F)F)c1ccc(-c3ccc(C)s3)cc1S2(=O)=O (configuration not stated)
- absorption maximum (in C1COCCO1): 506 nm
- absorption maximum (in CC#N): 507 nm
- absorption maximum (in CCCCCC): 489 nm
- absorption maximum (in CCO): 508 nm
- absorption maximum (in CS(C)=O): 525.37 nm
- absorption maximum (in ClC(Cl)(Cl)Cl): 497.35 nm
- absorption maximum (in ClCCl): 507.67 nm

Compound: Nc1ccccc1
- absorption maximum (in C1CCCCC1): 283.13 nm

Compound: COc1ccc(/C2=C3N=C(C(c4ccccc4)=C/3c3ccccc3)/C(c3ccc(OC)cc3)=c3\[nH]/c(c(-c4ccccc4)c3-c3ccccc3)=C(/c3ccc(OC)cc3)C3=N/C(=C(/c4ccc(OC)cc4)c4[nH]c2c(-c2ccccc2)c4-c2ccccc2)C(c2ccccc2)=C3c2ccccc2)cc1
- absorption maximum (in ClCCl): 731 nm

Compound: N#Cc1ccc(-c2cn3ccc[n+]3[n-]2)cc1
- absorption maximum (in ClCCl): 381 nm

Compound: Cc1ccc(-n2c(-c3ccc(N(c4ccc(-c5ccc(N(c6ccc(-c7nc8c9ccccc9c9ccccc9c8n7-c7ccc(C)cc7)cc6)c6ccc(-c7nc8c9ccccc9c9ccccc9c8n7-c7ccc(C)cc7)cc6)cc5)cc4)c4ccc(-c5nc6c7ccccc7c7ccccc7c6n5-c5ccc(C)cc5)cc4)cc3)nc3c4ccccc4c4ccccc4c32)cc1
- absorption maximum (in ClCCl): 376 nm

Compound: CCCN1/C(=C/C=C(/C=C/C2=[N+](CCC)c3ccccc3C2(C)C)c2cc[n+](C)cc2)C(C)(C)c2ccccc21
- absorption maximum (in CO): 627 nm
- absorption maximum (in CS(C)=O): 637 nm
- absorption maximum (in O): 626 nm

Compound: O=[N+]([O-])c1ccc(-c2nc3c(c4c2-c2ccccc2CC4)-c2ccccc2CC3)cc1
- absorption maximum (in C1CCOC1): 350 nm
- absorption maximum (in CC#N): 345 nm
- absorption maximum (in CCCCCC): 339 nm
- absorption maximum (in CCOC(C)=O): 339 nm
- absorption maximum (in CO): 334 nm
- absorption maximum (in CS(C)=O): 352 nm
- absorption maximum (in Cc1ccccc1): 351 nm
- absorption maximum (in ClCCl): 353 nm

The next lines start with the values.

- absorption maximum (in C1CCOC1): 392 nm
Compound: N#Cc1c(N2CCCC2)cc(-c2ccccc2)c2c1-c1ccccc1C2=O

- absorption maximum (in CCOC(C)=O): 383 nm
Compound: CCn1c2ccccc2c2c(C#N)c3c(ccc4c3cnn4C)nc21

- absorption maximum (in O): 494 nm
Compound: Nc1ccc2c(-c3ccc(C(=O)CN4C(=O)CCC4=O)cc3C(=O)[O-])c3ccc(=[NH2+])c(S(=O)(=O)[O-])c-3oc2c1S(=O)(=O)[O-]

- absorption maximum (in ClCCl): 402 nm
Compound: Cc1cc(-c2ccc(-c3ccccc3)cc2)cc(C)[o+]1

- absorption maximum (in ClCCl): 498 nm
Compound: Cc1ccc(C2=C(c3ccc(C)cc3)c3cccc4c3c(cc3nc5ccccc5nc34)O2)cc1

- absorption maximum (in ClC(Cl)Cl): 327 nm
Compound: CCCCCCCCC1(CCCCCCCC)c2cc(-c3ccccc3)ccc2-c2ccc(-c3ccccc3)cc21

- absorption maximum (in ClCCl): 343 nm
Compound: CCOc1cccc2c1O[B-](F)(F)[n+]1c3c(c4c(c1-2)-c1ccccc1CC4)-c1ccccc1CC3

- absorption maximum (in CO): 446 nm
- absorption maximum (in ClC(Cl)Cl): 488 nm
Compound: Cc1nc2c(ccc3c2sc(/C=C/c2ccc(-n4c5ccccc5c5ccccc54)cc2)[n+]3C)s1

- absorption maximum (in O): 649 nm
Compound: COc1ccc(C2=C3C=CC(=[N+](C)C)C=C3[Si](C)(C)c3cc(N(C)C)ccc32)c(OC)c1

- absorption maximum (in C1CCOC1): 431 nm
- absorption maximum (in CC#N): 431 nm
- absorption maximum (in CCO): 435 nm
- absorption maximum (in CS(C)=O): 457 nm
Compound: CCOC(=O)c1ccccc1-c1c2ccc(=O)cc-2oc2cc(OC(=O)[C@H](CSCc3ccc(C)cc3)NC(=O)OC(C)(C)C)ccc12

- absorption maximum (in CO): 566 nm
Compound: COC(=O)COc1ccc(/C=C/C2=[N+]3C(=C(c4ccc(N(C)C)cc4)c4c(C)cc(C)n4[B-]3(F)F)C(C)=C2)cc1

- absorption maximum (in ClC(Cl)Cl): 522 nm
Compound: CC[Si](C#Cc1c2c(=O)c3ccccc3c2c(C#C[Si](CC)(CC)CC)c2c(=O)c3ccccc3c12)(CC)CC

- absorption maximum (in ClC(Cl)Cl): 306 nm
Compound: COc1ccc(-c2ncc3ccccn23)cc1

- absorption maximum (in ClC(Cl)Cl): 352 nm
Compound: CC(=O)OCCN1C(=O)c2cccc3c(Oc4ccccc4C)ccc(c23)C1=O

- absorption maximum (in CS(C)=O): 736 nm
Compound: COc1ccc(-c2c3nc(cc4ccc([nH]4)c(-c4ccc(OC)c(OCCCC(=O)O)c4)c4nc(cc5ccc2[nH]5)CC4)CC3)cc1OCCCC(=O)O

- absorption maximum (in ClCCl): 447 nm
Compound: Cc1cccc(C)c1N1C(c2ccccc2)=Cc2ccc3ccccc3[n+]2[B-]1(F)F

- absorption maximum (in CCCCCC): 338 nm
- absorption maximum (in CO): 338 nm
- absorption maximum (in ClCCl): 341 nm
Compound: CC(C)(C)c1ccc2ccc3cccc4ccc1c2c34

- absorption maximum (in CC#N): 451 nm
Compound: COC(=O)/C=C/c1sc(-c2ccc(N(C)C)cc2)c(-c2ccc(OC)cc2)c1O
